System: 454973-116-R2-J3-PDC spheroids, percent test/control viability
Test: Anticancer human tumor 454973-116-R2-J3-PDC patient-derived pancreatic carcinoma cell line growth inhibition [CLK]
Conditions: spheroids with HUVEC and MSC; for IC50: curve of first compound; for viability, T/C: stronger effect = lower value; active = viability on the fitted dose curve at most 10% of control; inactive = the rest
Description: A high-throughput screen of multi-cell type tumor spheroids was designed to identify active combinations of […] and targeted small molecules. Complex spheroids include a stromal component modeled by human endothelial cells (HUVEC) and fibroblasts modeled by human mesenchymal stem cells (MSCs). The concentration ranges selected for each drug and investigational agent were based upon clinically achievable concentrations if the clinical Cmax of the agent was known.
Compounds. The drugs and investigational agents: cirtuvivint (SM08502; NSC835563), CC-671 (NSC850746), vemurafenib (NSC761431), tapotoclax (NSC804041), sotorasib (NSC818433), adagrasib (NSC831453), MRTX-1133 (NSC836407), BAY2416964 (NSC825713), copanlisib (NSC816437), inavolisib (NSC800729), abemaciclib (NSC768073), osimertinib (NSC779217), entinostat (NSC756642), eltanexor (KPT-8602, NSC794443), venetoclax (NSC766270), ceralasertib (NSC777638), bortezomib (NSC756655), olaparib (NSC753686), talazoparib (NSC767125), alisertib (NSC759677), peposertib (NSC802822), gemcitabine (NSC613327), 5-fluorouracil (NSC19893), SN-38 (NSC673596), oxaliplatin (NSC266046), paclitaxel (NSC125973), and doxorubicin (NSC123127), were obtained from the National Cancer Institute (NCI) Developmental Therapeutics Program Chemical Repository. The FDA-approved anticancer drug set is available from the Developmental Therapeutics Program at https://dtp.cancer.gov/organization/dscb/obtaining/available plates.htm. […] The stock solutions were prepared in dimethyl sulfoxide (DMSO, Sigma-Aldrich, St. Louis, MO, cat. D2650), except for the platinum complexes which were prepared in saline (Quality Biological, Gaithersburg, MD, cat. 114-055-101), at 800-fold the tested concentration and stored at -70 degrees C prior to their use. All drugs and investigational agents were tested over a range starting from a high concentration at or near the clinical Cmax and decreasing in half-log increments. If the clinical Cmax for an agent had not been determined, the highest concentration tested was 10 microM.
Cell Culture. All cells were maintained in an incubator at 37 degrees C and 5% CO2 with 95% humidity. The PDC lines were cultured according to standard operating procedures established by the NCI PDMR. Briefly, all PDCs were thawed and cultured in Matrigel-coated flasks prepared with a working solution of 1X Ham's F-12 nutrient mix, without supplementation (Invitrogen, Waltham, MA, cat. 11765054), 100 U/mL penicillin-streptomycin (Invitrogen, cat. 15140122), and 2.5% Matrigel (Corning Inc., Corning, NY, cat. 354248) for the first three passages. The 947758-054-R-J2-PDC line was cultured in 6B/Colon 1A media, which includes advanced DMEM/F-12 (Thermo Fisher Scientific, cat. 12634028), 10 mM HEPES (Thermo Fisher Scientific, cat. 15630080), 1X GlutaMAX supplement (Thermo Fisher Scientific, cat. 35050061), 0.1 mg/mL primocin (InvivoGen, cat. ant-pm-2), 10% defined fetal bovine serum, heat inactivated (HyClone Laboratories Inc., cat. SH30070.03HI), 1.25 mM N-Acetyl-L-cysteine (Sigma-Aldrich, cat. A9165), 10 mM nicotinamide (Sigma-Aldrich, cat. N0636), 1X B-27 supplement (Thermo Fisher Scientific, cat. 17504044), 1X N-2 supplement (Thermo Fisher Scientific, cat. 17502048), and 10 microM Y-27632 dihydrochloride (Tocris Bioscience, cat. 1254). The 876862-298-R-J1-PDC was cultured in 6E media, which includes all 6B/Colon 1A media components plus 50% L-WRN conditioned media (ATCC, cat. CRL-3276), 50 ng/mL recombinant human EGF recombinant protein (hEGF; Thermo Fisher Scientific, cat. PHG0311), 10 ng/mL recombinant human fibroblast growth factor 10 (hGFG-10; PeproTech, cat. 100-26), 1 ng/mL recombinant human fibroblast growth factor 2 (hFGF-2; PeproTech, cat. 100-18B), and 1 µM prostaglandin E2 (PGE2; Tocris, cat. 2296). The 227483-062-R1-J1-PDC line was cultured in Panc media, containing all 6E components except hFGF-2, with the addition of 500 nM SB-431542 (Selleckchem, cat. S1067) and 10 nM gastrin (Tocris, cat. 3006). […]
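Also: spheroids exposed to compounds for 7 days before readout.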

CC(CO)NC(=O)c1cc(-c2ccc(Cl)cc2)nn(-c2cnn(C)c2)c1=O (configuration not stated) + CN1CCN(c2cc(C(=O)Nc3cc4cc(-c5cnn(C)c5)ccc4cn3)ccn2)CC1
inactive: viability, T/C (second compound 0.0316 µM, first compound 0.0316 µM) 97.5% | viability, T/C (second compound 0.0316 µM, first compound 0.1 µM) 97.8% | viability, T/C (second compound 0.0316 µM, first compound 0.316 µM) 95.6% | viability, T/C (second compound 0.0316 µM, first compound 1 µM) 105% | viability, T/C (second compound 0.0316 µM, first compound 3.16 µM) 96.5% | viability, T/C (second compound 0.0316 µM, first compound 10 µM) 68.4% | viability, T/C (second compound 0.1 µM, first compound 0.0316 µM) 76.9% | viability, T/C (second compound 0.1 µM, first compound 0.1 µM) 88.5% | viability, T/C (second compound 0.1 µM, first compound 0.316 µM) 80.6% | viability, T/C (second compound 0.1 µM, first compound 1 µM) 86% | viability, T/C (second compound 0.1 µM, first compound 3.16 µM) 82% | viability, T/C (second compound 0.1 µM, first compound 10 µM) 54.2%
< 31.6 nM: IC50 (second compound 0.316 µM) | IC50 (second compound 1 µM) | IC50 (second compound 3.16 µM) | IC50 (second compound 10 µM)
active: viability, T/C (second compound 0.316 µM, first compound 0.0316 µM) 1.94% | viability, T/C (second compound 0.316 µM, first compound 0.1 µM) 2.45% | viability, T/C (second compound 0.316 µM, first compound 0.316 µM) 2.27% | viability, T/C (second compound 0.316 µM, first compound 1 µM) 2.92% | viability, T/C (second compound 0.316 µM, first compound 3.16 µM) 2.59% | viability, T/C (second compound 0.316 µM, first compound 10 µM) 4.2% | viability, T/C (second compound 1 µM, first compound 0.0316 µM) 0.11% | viability, T/C (second compound 1 µM, first compound 0.1 µM) 0.93% | viability, T/C (second compound 1 µM, first compound 0.316 µM) 2.47% | viability, T/C (second compound 1 µM, first compound 1 µM) 0.11% | viability, T/C (second compound 1 µM, first compound 3.16 µM) 0.09% | viability, T/C (second compound 1 µM, first compound 10 µM) 0.42% | viability, T/C (second compound 3.16 µM, first compound 0.0316 µM) 0.17% | viability, T/C (second compound 3.16 µM, first compound 0.1 µM) 0.17% | viability, T/C (second compound 3.16 µM, first compound 0.316 µM) 0.24% | viability, T/C (second compound 3.16 µM, first compound 1 µM) 0.18% | viability, T/C (second compound 3.16 µM, first compound 3.16 µM) 0.16% | viability, T/C (second compound 3.16 µM, first compound 10 µM) 0.13% | viability, T/C (second compound 10 µM, first compound 0.0316 µM) 1.96% | viability, T/C (second compound 10 µM, first compound 0.1 µM) 0.22% | viability, T/C (second compound 10 µM, first compound 0.316 µM) 0.37% | viability, T/C (second compound 10 µM, first compound 1 µM) 2.01% | viability, T/C (second compound 10 µM, first compound 3.16 µM) 0.24% | viability, T/C (second compound 10 µM, first compound 10 µM) 0.36%
> 10000 nM: IC50 (second compound 0.0316 µM) | IC50 (second compound 0.1 µM)

Source: PubChem BioAssay AID2060618 (Molecular Pharmacology Branch, DTP, NCI, 2025)
